Measured values reported in US10160780B2, “Compound extracted from husk and fruit stem of Xanthoceras sobifolia and its extracting method and use thereof” (priority 2004, dated 2018).
In brackets after ≈: the same amount, converted by molar mass. Like-named read-outs stand apart in the source and are kept apart here.

How the values were obtained:
Hela cervical cancer = experiment: anti-tumor activity in vitro, SRB; type: cell-based, human
Text: (§1) Take Xanthoceraside derived from the example 3 to do a test on tumor cell in vitro.

HL-60 human leukemia = experiment: anti-tumor activity in vitro, MTT; type: cell-based
Text: as §1

mice [1] = experiment: Y maze test, memory retrieval impairment of mice induced by scopolamine; type: in vivo; conditions: scopolamine 2.0 mg/kg, then injection 6 mg/kg, Y maze after 20 minutes
Description: Mice were trained based on the stochastic three arms Y maze test, to screen those who had less than 30 errors of alternation before they continuously made correct choices for 10 times. After relaxed for 24 hours, the selected ones were randomized into two groups and for all of them scopolamine was injected into celiac at the ratio of 2.0 mg/kg mice weight to cause their learning and memory impairment. After 15 minutes, the mice in the treatment group were given an injection of total dose of Xanthoceraside at ratio of 6 mg/kg mice weight, while those in the control group were given an injection of the same amount of normal saline. After 20 minutes, they were arranged respectively into Y maze and the number of incorrect alternations before they made correct choices continuously for 10 times.

mice [2] = experiment: regular static hypoxia tolerance in an isolated environment (death time); type: in vivo; conditions: oral 2 mg twice a day for 6 days
Description: The above obtained Xanthoceraside was for the test of regular static hypoxia tolerance in an isolated environment to observe the effect of Xanthoceraside on death time of animals.
The test consisted of two sections. Each section was divided into two groups: control and treatment. There were three measurements to calculate death time of the mice. Those in treatment group took oral dosing of 2 mg of Xanthoceraside twice a day for 6 days. The three parameters are: • The average death time of whole group (xt); • The super average death time (xp): based on the average death time of the control group (xc), calculate the death time (xp), which is greater than the control group (xc), and calculate the mean. • The delayed death time (xp-xc): the super average death time (xp) minus the control group (xc) and calculated the mean.

[3] = tested on: PC-3MIE8 human prostate cancer; experiment: anti-tumor activity in vitro, SRB; type: cell-based; conditions: PC-3MIE8, SRB
Text: as §1

[4] = tested on: BGC-823 human gastric cancer; experiment: anti-tumor activity in vitro, SRB; type: cell-based; conditions: BGC-823, SRB
Text: as §1

[5] = tested on: Bel-7402 human liver cancer; experiment: anti-tumor activity in vitro, SRB; type: cell-based; conditions: Bel-7402, SRB
Text: as §1

[6] = tested on: MDA-MB-435 human breast cancer; experiment: anti-tumor activity in vitro, SRB; type: cell-based; conditions: MDA-MB-435, SRB
Text: as §1

mice [7] = experiment: Y maze test of learning and memory ability of mice; type: in vivo; conditions: fed 9 mg/kg, Y maze after 40 minutes, incorrect alternations before 10 continuous correct choices
Description: 20 female and male mice weighted 18˜23 g were selected and divided evenly into two groups. The treatment group was fed with total dose of Xanthoceraside at the ratio of 9 mg/kg mice weight, and the control group was fed with the same amount of normal saline. After 40 minutes, they were put into Y maze respectively for performance observation. The number of incorrect alternations for a mice were recorded before it made correct choices continuously for 10 times. If errors more than 30, cutting the value to 30.

In the case of `C/C=C(/C)C(=O)O[C@H]1[C@H](OC(=O)/C(C)=C\C)C2(CO)C(CC1(C)C)C1=CCC3[C@@]4(C)CC[C@H](OC5OC(C(=O)O)C(O)C(OC6OC(CO)C(O)C6O)C5OC5OC(CO)C(O)C(O)C5O)C(C)(C)C4CC[C@@]3(C)[C@]1(C)[C@@H](O)[C@H]2O` (stereo partly drawn) [Xanthoceraside, 3-O-(α-L-arabinofuranosyl(1→3)-β-D-galactopyranosyl(1→2))-β-D-glucuronopyranosyl-21,22-diangeloyl-R1-barrigenol], the “Inhibition ratio (%)” value (Hela cervical cancer; 0.5 μg/ml) is reported as −12.72%, the “Inhibition ratio (%)” value (Hela cervical cancer; 5.0 μg/ml) is reported as −4.05% and the “Inhibition ratio (%)” value (Hela cervical cancer; 50.0 μg/ml) is reported as 95.49%. For the same compound, the IC50 (Hela cervical cancer; Homo sapiens) was 34.2 µg/mL (≈ 30 µM), the IC50 (HL-60 human leukemia; HL-60, MTT) was 41.29 µg/mL (≈ 36.2 µM) and the “Inhibition ratio (%)” value (HL-60 human leukemia; HL-60, MTT, 0.5 μg/ml) was 9.34%. For the same compound, the “Inhibition ratio (%)” value (HL-60 human leukemia; HL-60, MTT, 5.0 μg/ml) was 17.68%, the “Inhibition ratio (%)” value (HL-60 human leukemia; HL-60, MTT, 50.0 μg/ml) was 56.90% and the IC50 (HL-60 human leukemia; Homo sapiens, HL-60, HL-60, MTT, read-out: IC50) was 41.9 µg/mL (≈ 36.7 µM). The “Error frequency (X ± SD)” value (mice [1]) was 4.0 ± 1.5, the “xp − xc, delayed death time” value (mice [2]; First section) was 14.59 ± 14.83(17) min and the “xp, super average death time” value (mice [2]; First section) was 56.51 ± 14.59(17) min. For the same compound, the “xt, average death time of whole group” value (mice [2]; First section) was 41.84 ± 15.35(30) min, the “xp − xc, delayed death time” value (mice [2]; Second section) was 8.40 ± 4.94(33) min and the “xp, super average death time” value (mice [2]; Second section) was 33.40 ± 4.94(33) min. The “xt, average death time of whole group” value (mice [2]; Second section) was 31.55 ± 6.68(41) min, the IC50 ([3]; Homo sapiens) was 41 µg/mL (≈ 35.9 µM) and the “Inhibition ratio (%)” value ([3]; 0.5 μg/ml) was −13.90%. The “Inhibition ratio (%)” value ([3]; 5.0 μg/ml) was −7.63%, the “Inhibition ratio (%)” value ([3]; 50.0 μg/ml) was 92.03% and the “Inhibition ratio (%)” value ([4]; 0.5 μg/ml) was −11.71%. The “Inhibition ratio (%)” value ([4]; 5.0 μg/ml) was −5.92%, the “Inhibition ratio (%)” value ([4]; 50.0 μg/ml) was 92.45% and the IC50 ([4]; Homo sapiens) was 40.2 µg/mL (≈ 35.3 µM). For the same compound, the “Inhibition ratio (%)” value ([5]; 0.5 μg/ml) was −9.78%, the “Inhibition ratio (%)” value ([5]; 5.0 μg/ml) was −1.24% and the “Inhibition ratio (%)” value ([5]; 50.0 μg/ml) was 92.96%. For the same compound, the IC50 ([5]; Homo sapiens) was 39.3 µg/mL (≈ 34.5 µM), the IC50 ([6]; Homo sapiens) was 18.6 µg/mL (≈ 16.3 µM) and the “Inhibition ratio (%)” value ([6]; 0.5 μg/ml) was −4.50%. The “Inhibition ratio (%)” value ([6]; 5.0 μg/ml) was 2.92%, the “Inhibition ratio (%)” value ([6]; 50.0 μg/ml) was 93.14% and the “Error frequency (X ± SD)” value (mice [7]) was 6.9 ± 2.3.
